Test results taken from patent US10150771B2, “Triazolopyrazinones as PDE1 inhibitors” (H. Lundbeck A/S, priority 2014, dated 2018).

Tests used:
Format in all cases: biochemical
[1] = target: PDE1A (Homo sapiens, UniProt P54750); experiment: PDE1 inhibition assay (SPA), PDE1A; conditions: for IC50: concentration required to reach 50% inhibition of the enzyme, 15 nM tritium labelled cAMP, read-out: PDE1A inhibition (nM or %): IC50; for inhibition at 10 µM: 1 h, % inhibition of the enzyme at a concentration of 10 micro molar of the compound, read-out: PDE1A inhibition (nM or %): % inhib
Sequence of PDE1A (P54750 whole entry): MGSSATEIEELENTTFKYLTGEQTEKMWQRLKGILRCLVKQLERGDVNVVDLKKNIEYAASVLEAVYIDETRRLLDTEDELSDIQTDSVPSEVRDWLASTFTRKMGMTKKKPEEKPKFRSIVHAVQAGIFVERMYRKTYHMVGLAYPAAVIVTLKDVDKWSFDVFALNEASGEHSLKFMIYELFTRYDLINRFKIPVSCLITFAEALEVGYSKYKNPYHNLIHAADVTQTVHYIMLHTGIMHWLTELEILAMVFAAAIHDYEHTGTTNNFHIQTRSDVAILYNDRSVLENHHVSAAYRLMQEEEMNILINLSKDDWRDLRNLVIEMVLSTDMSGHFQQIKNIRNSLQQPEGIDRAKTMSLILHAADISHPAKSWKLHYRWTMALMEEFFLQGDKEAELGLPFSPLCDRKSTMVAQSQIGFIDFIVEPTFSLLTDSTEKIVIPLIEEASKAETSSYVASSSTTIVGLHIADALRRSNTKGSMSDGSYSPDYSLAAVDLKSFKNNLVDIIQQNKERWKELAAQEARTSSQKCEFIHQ
Outline: (§1)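 A scintillation proximity assay used enzyme sufficient for 20–25% substrate conversion and 15 nM tritiated cAMP in 50 mM HEPES pH 7.6, 10 mM MgCl2, 0.02% Tween20 and 0.1 mg/ml BSA, run for 1 h at room temperature. Reactions were stopped with yttrium silicate SPA beads. IC50 values were derived from activity relative to uninhibited control.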

[2] = target: PDE1B (Homo sapiens, UniProt Q01064); experiment: PDE1 inhibition assay (SPA), PDE1B; conditions: for IC50: concentration required to reach 50% inhibition of the enzyme, 15 nM tritium labelled cAMP, read-out: PDE1B inhibition (nM or %): IC50; for inhibition at 10 µM: 1 h, % inhibition of the enzyme at a concentration of 10 micro molar of the compound, read-out: PDE1B inhibition (nM or %): % inhib
Sequence of PDE1B (Q01064 whole entry): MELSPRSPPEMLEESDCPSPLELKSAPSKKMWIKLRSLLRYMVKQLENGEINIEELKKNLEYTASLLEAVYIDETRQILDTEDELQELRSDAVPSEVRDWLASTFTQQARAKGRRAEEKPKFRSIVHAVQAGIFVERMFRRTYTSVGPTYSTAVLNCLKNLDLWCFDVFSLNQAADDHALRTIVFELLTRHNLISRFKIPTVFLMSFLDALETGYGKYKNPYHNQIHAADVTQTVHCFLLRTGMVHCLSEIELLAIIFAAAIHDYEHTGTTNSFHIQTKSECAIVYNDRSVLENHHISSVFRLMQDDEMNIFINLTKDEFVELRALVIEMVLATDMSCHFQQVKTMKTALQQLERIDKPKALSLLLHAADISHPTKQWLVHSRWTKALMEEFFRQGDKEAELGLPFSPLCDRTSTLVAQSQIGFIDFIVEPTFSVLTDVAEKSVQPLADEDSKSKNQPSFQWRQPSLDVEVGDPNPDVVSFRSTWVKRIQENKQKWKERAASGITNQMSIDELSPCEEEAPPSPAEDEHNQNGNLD
Outline: as §1

[3] = target: PDE1C (Homo sapiens, UniProt Q14123); experiment: PDE1 inhibition assay (SPA), PDE1C; conditions: for IC50: concentration required to reach 50% inhibition of the enzyme, 15 nM tritium labelled cAMP, read-out: PDE1C inhibition (nM or %): IC50
Sequence of PDE1C (Q14123 whole entry): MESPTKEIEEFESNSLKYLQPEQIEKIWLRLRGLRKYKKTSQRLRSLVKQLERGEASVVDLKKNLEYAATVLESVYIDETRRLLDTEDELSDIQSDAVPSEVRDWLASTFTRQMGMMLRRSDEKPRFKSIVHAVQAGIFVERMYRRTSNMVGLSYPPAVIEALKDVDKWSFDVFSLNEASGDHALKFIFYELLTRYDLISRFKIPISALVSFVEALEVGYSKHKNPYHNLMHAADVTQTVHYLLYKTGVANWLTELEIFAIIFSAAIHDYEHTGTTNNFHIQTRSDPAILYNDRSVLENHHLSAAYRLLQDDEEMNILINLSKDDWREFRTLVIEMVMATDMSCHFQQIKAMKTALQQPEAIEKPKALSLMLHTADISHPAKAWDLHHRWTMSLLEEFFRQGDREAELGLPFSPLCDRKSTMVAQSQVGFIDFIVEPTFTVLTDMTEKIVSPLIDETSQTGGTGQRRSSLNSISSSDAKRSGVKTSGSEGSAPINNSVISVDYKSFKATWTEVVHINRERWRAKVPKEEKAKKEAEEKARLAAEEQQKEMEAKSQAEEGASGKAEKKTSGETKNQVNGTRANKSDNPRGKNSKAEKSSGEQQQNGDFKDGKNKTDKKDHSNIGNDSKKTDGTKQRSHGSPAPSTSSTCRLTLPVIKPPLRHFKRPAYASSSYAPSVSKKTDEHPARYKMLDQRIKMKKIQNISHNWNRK
Outline: as §1

Row | SMILES | IC50 [1] [nM] | IC50 [2] [nM] | IC50 [3] [nM] | inhibition at 10 µM [1] [%] | inhibition at 10 µM [2] [%] | PDE1C inhibition (nM or %): % inhib ([3]; % inhibition of the enzyme at a concentration of 10 micro molar of the compound) [%]
1 | O=c1c2nnc(C3CCOCC3)n2cc(Cc2cccc(F)c2)n1CC1CCCC1 [7-(cyclopentylmethyl)-6-(3-fluorobenzyl)-3-(tetrahydro-2H-pyran-4-yl)-[1,2,4]triazolo[4,3-a]pyrazin-8(7H)-one] | 369 | 220 | 27 |  |  | 
2 | Cc1cccc(Cc2cn3c(C4CCOCC4)nnc3c(=O)n2CC2CCCC2)c1 [7-(cyclopentylmethyl)-6-(3-methylbenzyl)-3-(tetrahydro-2H-pyran-4-yl)-[1,2,4]triazolo[4,3-a]pyrazin-8(7H)-one] | 17 | 37 | 4 |  |  | 
3 | O=c1c2nnc(C3CCOCC3)n2cc(Cc2ccc(F)cc2)n1CC1CCCC1 [7-(cyclopentylmethyl)-6-(4-fluorobenzyl)-3-(tetrahydro-2H-pyran-4-yl)-[1,2,4]triazolo[4,3-a]pyrazin-8(7H)-one] | 142 | 140 | 12 |  |  | 
4 | Cc1ccc(Cc2cn3c(C4CCOCC4)nnc3c(=O)n2CC2CCCC2)cc1 [7-(cyclopentylmethyl)-6-(4-methylbenzyl)-3-(tetrahydro-2H-pyran-4-yl)-[1,2,4]triazolo[4,3-a]pyrazin-8(7H)-one] | 21 | 19 | 3 |  |  | 
5 | CCCc1nnc2c(=O)n(Cc3ccccc3)ccn12 [7-Benzyl-3-propyl-[1,2,4]triazolo[4,3-a]pyrazin-8(7H)-one] | 770 | 400 | 110 |  |  | 
6 | CCCc1nnc2c(=O)n(CC)ccn12 [7-Ethyl-3-propyl-[1,2,4]triazolo[4,3-a]pyrazin-8(7H)-one] |  |  |  | 49 | 71 | 52
7 | CCCCCCn1ccn2c(C3CCOCC3)nnc2c1=O [7-Hexyl-3-(tetrahydro-2H-pyran-4-yl)-[1,2,4]triazolo[4,3-a]pyrazin-8(7H)-one] | 1260 | 1000 | 1100 |  |  | 
8 | CCCc1nnc2c(=O)n(CC(C)C)ccn12 [7-Isobutyl-3-propyl-[1,2,4]triazolo[4,3-a]pyrazin-8(7H)-one] | 3300 | 2700 | 970 |  |  | 
9 | CC(C)CCn1ccn2c(C3CCOCC3)nnc2c1=O [7-isopentyl-3-(tetrahydro-2H-pyran-4-yl)-[1,2,4]triazolo[4,3-a]pyrazin-8(7H)-one] |  |  | 1100 | 47 | 55 | 
